Experimental data as given in US7906655B2, “Hepatitis C virus inhibitors” (Bristol-Myers Squibb Company, priority 2008, dated 2011).

The compounds below were run on HCV 1b genotype (assay: HCV Replicon assay (HCV-neo replicon cells, wild-type)). Conditions: Hepatitis C virus, HCV 1b genotype replicon; class symbols.
Type: cell-based
Summary of the method: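 Assay used wild-type HCV genotype 1b replicon cells carrying neo, with luciferase reporter read-outs in some formats.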
In the case of O=C(c1cccs1)N1CCC[C@H]1c1nc2cc(C#Cc3ccc4nc([C@@H]5CCCN5C(=O)[C@H]5CCCO5)[nH]c4c3)ccc2[nH]1 [Example M54.4, 5-((2-((2S)-1-((2R)-tetrahydro-2-furanylcarbonyl)-2-pyrrolidinyl)-1H-benzimidazol-6-yl)ethynyl)-2-((2S)-1-(2-thienylcarbonyl)-2-pyrrolidinyl)-1H-benzimidazole], the EC50 is reported as < 0.00457 µM. O=C(c1ccoc1)N1CCC[C@H]1c1nc2ccc(C#Cc3ccc4[nH]c([C@@H]5CCCN5C(=O)[C@H]5CCCO5)nc4c3)cc2[nH]1 [Example M54.5, 5-((2-((2S)-1-(3-furoyl)-2-pyrrolidinyl)-1H-benzimidazol-6-yl)ethynyl)-2-((2S)-1-((2R)-tetrahydro-2-furanylcarbonyl)-2-pyrrolidinyl)-1H-benzimidazole] gave an EC50 of 0.00457 to 0.099 µM. For Cn1cccc1C(=O)N1CCC[C@H]1c1nc2ccc(C#Cc3ccc4[nH]c([C@@H]5CCCN5C(=O)[C@H]5CCCO5)nc4c3)cc2[nH]1 [Example M54.6, 5-((2-((2S)-1-((1-methyl-1H-pyrrol-2-yl)carbonyl)-2-pyrrolidinyl)-1H-benzimidazol-6-yl)ethynyl)-2-((2S)-1-((2R)-tetrahydro-2-furanylcarbonyl)-2-pyrrolidinyl)-1H-benzimidazole], the EC50 was 0.00457 to 0.099 µM. CCC(=O)N1CCC[C@H]1c1nc2ccc(C#Cc3ccc4[nH]c([C@@H]5CCCN5C(=O)[C@H]5CCCO5)nc4c3)cc2[nH]1 [Example M54.7, 5-((2-((2S)-1-propionyl-2-pyrrolidinyl)-1H-benzimidazol-6-yl)ethynyl)-2-((2S)-1-((2R)-tetrahydro-2-furanylcarbonyl)-2-pyrrolidinyl)-1H-benzimidazole] was tested, and the EC50 was 0.00457 to 0.099 µM. CC(C)C(=O)N1CCC[C@H]1c1nc2ccc(C#Cc3ccc4[nH]c([C@@H]5CCCN5C(=O)[C@H]5CCCO5)nc4c3)cc2[nH]1 [Example M54.8, 5-((2-((2S)-1-isobutyryl-2-pyrrolidinyl)-1H-benzimidazol-6-yl)ethynyl)-2-((2S)-1-((2R)-tetrahydro-2-furanylcarbonyl)-2-pyrrolidinyl)-1H-benzimidazole] was tested, and the EC50 was 0.00457 to 0.099 µM. With O=C(C1CC1)N1CCC[C@H]1c1nc2ccc(C#Cc3ccc4[nH]c([C@@H]5CCCN5C(=O)[C@H]5CCCO5)nc4c3)cc2[nH]1 [Example M54.9, 5-((2-((2S)-1-(cyclopropyl-carbonyl)-2-pyrrolidinyl)-1H-benzimidazol-6-yl)ethynyl)-2-((2S)-1-((2R)-tetrahydro-2-furanylcarbonyl)-2-pyrrolidinyl)-1H-benzimidazole] the EC50 was 0.00457 to 0.099 µM. O=C(C1CCC1)N1CCC[C@H]1c1nc2ccc(C#Cc3ccc4[nH]c([C@@H]5CCCN5C(=O)[C@H]5CCCO5)nc4c3)cc2[nH]1 [Example M54.10, 5-((2-((2S)-1-(cyclobutyl-carbonyl)-2-pyrrolidinyl)-1H-benzimidazol-6-yl)ethynyl)-2-((2S)-1-((2R)-tetrahydro-2-furanylcarbonyl)-2-pyrrolidinyl)-1H-benzimidazole] was tested, and the EC50 was 0.00457 to 0.099 µM. Compound CNc1ccccc1C(=O)N1CCC[C@H]1c1nc2cc(C#Cc3ccc4[nH]c([C@@H]5CCCN5C(=O)[C@H]5CCCO5)nc4c3)ccc2[nH]1 [Example M54.11, N-methyl-2-(((2S)-2-(5-((2-((2S)-1-((2R)-tetrahydro-2-furanylcarbonyl)-2-pyrrolidinyl)-1H-benzimidazol-5-yl)ethynyl)-1H-benzimidazol-2-yl)-1-pyrrolidinyl)carbonyl)aniline] has an EC50 of 0.00457 to 0.099 µM. In the case of CCCOc1ccccc1C(=O)N1CCC[C@H]1c1nc2ccc(C#Cc3ccc4[nH]c([C@@H]5CCCN5C(=O)[C@H]5CCCO5)nc4c3)cc2[nH]1 [Example M54.12, 5-((2-((2S)-1-(2-propoxybenzoyl)-2-pyrrolidinyl)-1H-benzimidazol-6-yl)ethynyl)-2-((2S)-1-((2R)-tetrahydro-2-furanylcarbonyl)-2-pyrrolidinyl)-1H-benzimidazole], the EC50 is reported as 0.1 to 0.999 µM.
